Source: patent publication US7847108B2, “Oxathiin carboxamides” (Bayer CropScience AG, priority 2003, dated 2010)

assay: logP determination by HPLC on reversed-phase column (EEC Directive 79/831 Annex V.A8); assay type: physicochemical; details: Table 1 logP / m.p., C18, 43° C., acidic range (pH 2.3)
Experimental: The given logP values were determined in accordance with EEC Directive 79/831 Annex V.A8 by HPLC (High Performance Liquid Chromatography) on a reversed-phase column (C 18). Temperature: 43° C. […] Calibration was carried out using unbranched alkan-2-ones (having 3 to 16 carbon atoms) with known logP values (determination of the logP values by the retention times using linear interpolation between two successive alkanones).

logP	Structure (SMILES)
3.20	O=C(Nc1c(F)cccc1-c1cc(F)cc(F)c1)C1=C(C(F)(F)F)OCCS1 [Example 74]
4.26	CC1COC(C(F)(F)F)=C(C(=O)Nc2ccccc2-c2ccc(Cl)c(Cl)c2)S1 (centres unmarked) [Example 6]
4.56	CC(C)ON=Cc1ccc(-c2ccccc2NC(=O)C2=C(C(F)(F)F)OC(C)CS2)cc1 (centres unmarked) [Example 64]
3.98	CC(C)(C)CCc1ccccc1NC(=O)C1=C(C(F)(F)F)OCCS1 [Example 103]
4.48	CCC(C)(C)CC(C)c1ccccc1NC(=O)C1=C(C(F)(F)F)OCCS1 (centres unmarked) [Example 58]
3.99	Cc1cc(-c2ccccc2NC(=O)C2=C(C(F)(F)F)OC(C)CS2)ccc1F (centres unmarked) [Example 70]
4.25	CCCCCCc1ccccc1NC(=O)C1=C(C(F)(F)F)OCCS1 [Example 76]
3.72	CC(CC1CC1)c1ccccc1NC(=O)C1=C(C(F)(F)F)OCCS1 (centres unmarked) [Example 96]
4.24	CC(C)CC(C)c1ccccc1NC(=O)C1=C(C(F)(F)F)OCC(C)S1 (centres unmarked) [Example 3]
4.06	CC1COC(C(F)(F)F)=C(C(=O)Nc2ccccc2-c2ccc(C(F)(F)F)cc2)S1 (centres unmarked) [Example 9]
4.18	CC1CC(C)(C)c2cccc(NC(=O)C3=C(C(F)(F)F)OCCS3)c21 (centres unmarked) [Example 60]
3.92	O=C(Nc1ccccc1-c1ccc(Cl)c(Cl)c1)C1=C(C(F)F)OCCS1 [Example 84]
3.88	CCC(C)C(C)c1ccccc1NC(=O)C1=C(C(F)(F)F)OCCS1 (centres unmarked) [Example 94]
3.94	CC(C)CC(C)c1cc(F)ccc1NC(=O)C1=C(C(F)(F)F)OCCS1 (centres unmarked) [Example 50]
3.98	Cc1cc(-c2ccccc2NC(=O)C2=C(C(F)(F)F)OCC(C)S2)ccc1F (centres unmarked) [Example 5]
3.69	O=C(Nc1ccccc1C1CCCCC1)C1=C(C(F)(F)F)OCCS1 [Example 28]
3.76	C#CCON=C(C)c1ccc(-c2ccccc2NC(=O)C2=C(C(F)(F)F)OCCS2)cc1 [Example 40]
3.66	CC1(c2ccccc2NC(=O)C2=C(C(F)(F)F)OCCS2)CC1(Cl)Cl (centres unmarked) [Example 101]
4.77	CCCON=Cc1ccc(-c2ccccc2NC(=O)C2=C(C(F)(F)F)OC(C)CS2)cc1F (centres unmarked) [Example 68]
3.85	O=C(Nc1ccccc1-c1ccc(I)cc1)C1=C(C(F)(F)F)OCCS1 [Example 33]
4.29	CC(CC(C)(C)C)c1ccccc1NC(=O)C1=C(C(F)F)OCCS1 (centres unmarked) [Example 81]
3.45	CON=C(C)c1ccc(-c2ccccc2NC(=O)C2=C(C(F)(F)F)OCCS2)cc1Cl [Example 45]
3.35	O=C(Nc1ccccc1-c1cc(F)cc(F)c1)C1=C(C(F)(F)F)OCCS1 [Example 32]

logP	Structure (SMILES)
3.72	CC(C)CCc1ccccc1NC(=O)C1=C(C(F)(F)F)OCCS1 [Example 102]
5.36	CC1CSC(C(=O)Nc2ccccc2C2CC3CCC2C3)=C(C(F)(F)F)O1 (centres unmarked) [Example 59]
4.42	CCCON=Cc1ccc(-c2ccccc2NC(=O)C2=C(C(F)(F)F)OCCS2)cc1F [Example 25]
4.03	O=C(Nc1ccccc1-c1ccc(Cl)c(C(F)(F)F)c1)C1=C(C(F)(F)F)OCCS1 [Example 30]
4.27	CC1CSC(C(=O)Nc2ccccc2-c2ccc(Cl)c(Cl)c2)=C(C(F)(F)F)O1 (centres unmarked) [Example 65]
2.87	N#Cc1ccc(-c2ccccc2NC(=O)C2=C(C(F)(F)F)OCCS2)cc1 [Example 78]
3.62	Cc1ccc(-c2ccccc2NC(=O)C2=C(C(F)(F)F)OCCS2)cc1F [Example 36]
3.62	CCC(CC)c1ccccc1NC(=O)C1=C(C(F)(F)F)OCCS1 [Example 51]
3.35	O=C(Nc1ccccc1-c1ccc(Br)cc1)C1=C(C(F)(F)F)OCCS1(=O)=O [Example 91]
4.27	CC(C)CC(C)c1ccccc1NC(=O)C1=C(C(F)(F)F)OC(C)CS1 (centres unmarked) [Example 63]
4.51	CC1CSC(C(=O)Nc2ccccc2C(C)CC(C)(C)C)=C(C(F)(F)F)O1 (centres unmarked) [Example 66]
3.57	O=C(Nc1ccccc1-c1ccc(Cl)c(Cl)c1)C1=C(C(F)(F)F)OCCS1(=O)=O [Example 93]
3.33	C=CCC(C)c1ccccc1NC(=O)C1=C(C(F)(F)F)OCCS1 (centres unmarked) [Example 34]
3.28	O=C(Nc1ccccc1-c1ccc(Cl)c(F)c1)C1=C(C(F)(F)F)OCCS1(=O)=O [Example 95]
4.32	CC1CSC(C(=O)Nc2ccc(F)cc2-c2ccc(Cl)c(Cl)c2)=C(C(F)(F)F)O1 (centres unmarked) [Example 67]
3.53	O=C(Nc1ccccc1-c1ccc(Cl)c(Cl)c1)C1=C(C2CC2)OCCS1 [Example 80]
4.53	CC1COC(C(F)(F)F)=C(C(=O)Nc2ccccc2C(C)CC(C)(C)C)S1 (centres unmarked) [Example 4]
4.32	CC(=CC(C)C)c1ccccc1NC(=O)C1=C(C(F)(F)F)OCCS1 [Example 89]
4.31	CC(c1ccccc1NC(=O)C1=C(C(F)(F)F)OCCS1)C1CCCCC1 (centres unmarked) [Example 49]
3.92	CC(CC1CC1(Cl)Cl)c1ccccc1NC(=O)C1=C(C(F)(F)F)OCCS1 (centres unmarked) [Example 55]
5.48	CCCCCCCCC(C)c1ccccc1NC(=O)C1=C(C(F)(F)F)OCCS1 (centres unmarked) [Example 42]
3.69	CON=C(C)c1ccc(-c2ccccc2NC(=O)C2=C(C(F)(F)F)OCCS2)cc1F [Example 46]
4.71	CC(CC1CCCCC1)c1ccccc1NC(=O)C1=C(C(F)(F)F)OCCS1 (centres unmarked) [Example 31]

logP	Structure (SMILES)
4.07	CCCC(CC)c1ccccc1NC(=O)C1=C(C(F)(F)F)OCCS1 (centres unmarked) [Example 77]
4.52	CCCON=Cc1ccc(-c2ccccc2NC(=O)C2=C(C(F)F)OCCS2)cc1F [Example 85]
3.60	O=C(Nc1ccccc1-c1cc(F)cc(Cl)c1)C1=C(C(F)(F)F)OCCS1 [Example 44]
3.66	Cc1cc(Cl)ccc1-c1ccccc1NC(=O)C1=C(C(F)(F)F)OCCS1(=O)=O [Example 92]
4.42	CC(C)(C)C#Cc1ccccc1NC(=O)C1=C(C(F)(F)F)OCCS1 [Example 97]
3.53	CC(C)CC(C)c1ccccc1NC(=O)C1=C(C(F)(F)F)OCCS1(=O)=O (centres unmarked) [Example 90]
3.49	O=C(Nc1ccc(F)cc1-c1cc(F)cc(F)c1)C1=C(C(F)(F)F)OCCS1 [Example 73]
3.99	Cc1ccc(-c2ccccc2NC(=O)C2=C(C(F)(F)F)OC(C)CS2)cc1F (centres unmarked) [Example 69]
3.81	CON=Cc1ccc(-c2ccccc2NC(=O)C2=C(C(F)(F)F)OC(C)CS2)cc1 (centres unmarked) [Example 62]
3.67	CCCC(C)c1cc(F)ccc1NC(=O)C1=C(C(F)(F)F)OCCS1 (centres unmarked) [Example 52]
4.00	CC1CC(C)(C)c2cccc(NC(=O)C3=C(C(F)F)OCCS3)c21 (centres unmarked) [Example 83]
2.53	CON=C(c1ccc(-c2ccccc2NC(=O)C2=C(C(F)(F)F)OCCS2)cc1)C(F)(F)F [Example 100]
4.08	CC1CSC(C(=O)Nc2ccccc2-c2ccc(C(F)(F)F)c(F)c2)=C(C(F)(F)F)O1 (centres unmarked) [Example 71]
1.96	CON=C(N)c1ccc(-c2ccccc2NC(=O)C2=C(C(F)(F)F)OCCS2)cc1 [Example 41]
3.70	O=C(Nc1cc(F)ccc1-c1cc(F)cc(F)c1)C1=C(C(F)(F)F)OCCS1 [Example 75]
4.65	CCCC(CC(C)C)c1ccccc1NC(=O)C1=C(C(F)(F)F)OCCS1 (centres unmarked) [Example 87]
4.34	CCCCCC(C)c1ccccc1NC(=O)C1=C(C(F)(F)F)OCCS1 (centres unmarked) [Example 48]
4.30	CCC(CC(C)C)c1ccccc1NC(=O)C1=C(C(F)(F)F)OCCS1 (centres unmarked) [Example 88]
4.08	CC1CSC(C(=O)Nc2ccccc2-c2ccc(C(F)(F)F)cc2)=C(C(F)(F)F)O1 (centres unmarked) [Example 61]
4.56	CC(=O)N(C(=O)C1=C(C(F)(F)F)OCCS1)c1ccccc1C(C)CC(C)C (centres unmarked) [Example 99]
4.57	CC(C)ON=Cc1ccc(-c2ccccc2NC(=O)C2=C(C(F)(F)F)OCC(C)S2)cc1 (centres unmarked) [Example 8]
4.30	CC1COC(C(F)(F)F)=C(C(=O)Nc2ccccc2-c2ccc(Cl)c(C(F)(F)F)c2)S1 (centres unmarked) [Example 7]
4.06	Cc1cc(-c2ccccc2NC(=O)C2=C(C(F)(F)F)OCCS2)ccc1Br [Example 98]

Structure (SMILES)	logP
CCC(C)CC(C)c1ccccc1NC(=O)C1=C(C(F)(F)F)OCCS1 (centres unmarked) [Example 54]	4.25
CCCC(C)c1ccccc1NC(=O)C1=C(C(F)(F)F)OCCS1 (centres unmarked) [Example 39]	3.63

same assay, conditions: reversed-phase C18 HPLC column, pH 2.3, C18, 43° C., precursors, read-out: HPLC: logP

chromatographic logP	Structure (SMILES)
1.19	CC(C)=CC(C)c1ccccc1N (centres unmarked) [Example (III-2)]
2.3	CCC(Cl)CC(C)c1ccccc1N (centres unmarked) [Example (III-3), 2-(3-Chloro-1-methylpentyl)phenylamine]
1.69	CC1COC(C(F)(F)F)=C(C(=O)O)S1 (centres unmarked) [Example (II-2)]
1.72	CC1CSC(C(=O)O)=C(C(F)(F)F)O1 (centres unmarked) [Example (II-3)]

same assay, conditions: reversed-phase C18 HPLC column, pH 2.3, C18, 43° C., read-out: logP (pH 2.3)

chromatographic logP	Structure (SMILES)
3.51	CO/N=C/c1ccc(-c2ccccc2NC(=O)C2=C(C(F)(F)F)OCCS2)cc1 [Example 1, N-[4′-(methoxyiminomethyl)-biphenyl-2-yl]-6-trifluoromethyl-2,3-dihydro-1,4-oxathiin-5-carboxamide]
3.77	CC(CC1CC1(Cl)Cl)c1ccccc1NC(=O)C(C)(C)C (centres unmarked) [III-4a, N-{2-[2-(2,2-dichlorocyclopropyl)-1-methylethyl]-phenyl}-2,2-dimethylpropionamide]
